Laboratory results as given in BindingDB's records for patent US10730849 (Merck Sharp & Dohme Corp., 2020).

Target: T1, Stimulator of interferon genes protein [R71H,G230A,H232R,R293Q] (Homo sapiens, UniProt Q86WV6, G230A/H232R/R293Q/R71H)
T1 construct: gene STING1
Assay: STING Biochemical [3H]cGAMP Competition Assay
From the text: The binding assay employs STING receptor obtained from Hi-Five cell membranes overexpressing full-length HAQ STING prepared in-house and tritiated cGAMP ligand also purified in-house.

T1 sequence (Q86WV6 whole entry R71H/G230A/H232R/R293Q, looked up): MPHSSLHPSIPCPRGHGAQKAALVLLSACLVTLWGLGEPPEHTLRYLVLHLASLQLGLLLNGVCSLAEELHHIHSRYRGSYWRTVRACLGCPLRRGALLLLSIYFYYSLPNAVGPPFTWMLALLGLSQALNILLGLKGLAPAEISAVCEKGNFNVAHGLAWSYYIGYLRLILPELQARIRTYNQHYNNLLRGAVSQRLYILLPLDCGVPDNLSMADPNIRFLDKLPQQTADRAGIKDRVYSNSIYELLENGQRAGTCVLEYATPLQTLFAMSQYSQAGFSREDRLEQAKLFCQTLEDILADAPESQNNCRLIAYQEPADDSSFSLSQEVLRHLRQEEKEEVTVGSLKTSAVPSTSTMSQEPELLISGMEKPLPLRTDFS

EC50: 5.99 µM
Compound: COc1cc2cc(C(=O)CCC(=O)OC(C)(C)C)sc2cc1OC [US10730849, Example 12]
